The compounds below were run on HBV (assay: HBV inhibition assay in HepAD38 cells (extracellular HBV DNA by direct qPCR)). Conditions: Hepatitis B virus, compound at 0.5 µM, 96 hours, relative to non-treated reference, read-out: Anti HBV Activity (conc µM).
Assay type: cell-based
Procedure, shortened: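 HepAD38 cells (HepG2, tetracycline-off HBV) induced in tetracycline-free medium, treated 96 h at 37 °C with compound, 0.5% DMSO. Extracellular HBV DNA quantified by direct SYBR qPCR of lysed supernatant, as % of untreated; EC50 from 8-point 1:2 curves; cytotoxicity by CellTiter-Blue.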
With `O=C(Nc1cc(F)c(F)c(F)c1)c1ccc2c(c1)S(=O)(=O)N([C@H]1C[C@@H](O)C1)CN2` [Example E126, Cis-2-(3-hydroxycyclobutyl)-N-(3,4,5-trifluorophenyl)-3,4-dihydro-2H-benzo[e][1,2,4]thiadiazine-7-carboxamide 1,1-dioxide] the inhibition at 0.5 µM was < 50%. With `O=C(Nc1cc(F)c(F)c(F)c1)c1ccc2c(c1)S(=O)(=O)N([C@H]1C[C@H](O)C1)CN2` [Example E127, Trans-2-(3-hydroxycyclobutyl)-N-(3,4,5-trifluorophenyl)-3,4-dihydro-2H-benzo[e][1,2,4]thiadiazine-7-carboxamide 1,1-dioxide] the inhibition at 0.5 µM was < 50%. With `O=C(Nc1cc(F)c(F)c(F)c1)c1ccc2c(c1)S(=O)(=O)N(c1cccnc1)C(=O)N2` [Example E128, 3-oxo-2-(pyridin-3-yl)-N-(3,4,5-trifluorophenyl)-3,4-dihydro-2H-benzo[e][1,2,4]thiadiazine-7-carboxamide 1,1-dioxide] the inhibition at 0.5 µM was < 50%. In the case of `O=C(Nc1ccc(F)c(C(F)F)c1)c1ccc2c(c1)S(=O)(=O)N([C@H]1CC[C@H](O)CC1)C(=O)N2` [Example E131, N-(3-(difluoromethyl)-4-fluorophenyl)-2-((1r,4r)-4-hydroxycyclohexyl)-3-oxo-3,4-dihydro-2H-benzo[e][1,2,4]thiadiazine-7-carboxamide 1,1-dioxide], the inhibition at 0.5 µM is reported as > 50%. `Cc1cc(NC(=O)c2ccc3c(c2)S(=O)(=O)N([C@H]2CC[C@H](O)CC2)C(=O)N3)ccc1F` [Example E132, N-(4-fluoro-3-methylphenyl)-2-((1r,4r)-4-hydroxycyclohexyl)-3-oxo-3,4-dihydro-2H-benzo[e][1,2,4]thiadiazine-7-carboxamide 1,1-dioxide] was tested, and the inhibition at 0.5 µM was > 50%. In the case of `O=C(Nc1cc(F)c(F)c(F)c1)c1ccc2c(c1)S(=O)(=O)N(C1CC=C(CO)CC1)C(=O)N2` (stereo not shown) [Example E134, 2-(4-(hydroxymethyl)cyclohex-3-en-1-yl)-3-oxo-N-(3,4,5-trifluorophenyl)-3,4-dihydro-2H-benzo[e][1,2,4]thiadiazine-7-carboxamide 1,1-dioxide], the inhibition at 0.5 µM is reported as > 50%.

Same assay, conditions: Hepatitis B virus, compound at 1 µM, 96 hours, relative to non-treated reference, read-out: Anti HBV Activity (conc µM)
For `O=C(Nc1cc(F)c(F)c(F)c1)c1ccc2c(c1)S(=O)(=O)NC(CO)CO2` (stereo not shown) [Example E135, 3-(hydroxymethyl)-N-(3,4,5-trifluorophenyl)-3,4-dihydro-2H-benzo[b][1,4,5]oxathiazepine-8-carboxamide 1,1-dioxide], the inhibition at 1 µM was < 50%. In the case of `O=C(Nc1cc(F)c(F)c(F)c1)c1ccc2c(c1)S(=O)(=O)N[C@@H]1CCC[C@@H]1N2` [Example E136, (3aR,10aS)-N-(3,4,5-trifluorophenyl)-2,3,3a,4,10,10a-hexahydro-1H-benzo[f]cyclopenta[c][1,2,5]thiadiazepine-7-carboxamide 5,5-dioxide], the inhibition at 1 µM is reported as < 50%. For `O=C(Nc1cc(F)c(F)c(F)c1)c1ccc2c(c1)S(=O)(=O)N[C@H]1CCC[C@H]1N2` [Example E137, (3aS,10aR)-N-(3,4,5-trifluorophenyl)-2,3,3a,4,10,10a-hexahydro-1H-benzo[f]cyclopenta[c][1,2,5]thiadiazepine-7-carboxamide 5,5-dioxide], the inhibition at 1 µM was < 50%. In the case of `O=C(Nc1cc(F)c(F)c(F)c1)c1ccc2c(c1)S(=O)(=O)Nc1ncnn1-2` [Example E138, N-(3,4,5-trifluorophenyl)-4H-benzo[e][1,2,4]triazolo[5,1-c][1,2,4]thiadiazine-7-carboxamide 5,5-dioxide], the inhibition at 1 µM is reported as < 50%. `O=C(Nc1cc(F)c(F)c(F)c1)c1ccc2c(c1)S(=O)(=O)NCC(CO)O2` (stereo not shown) [Example E139, 4-(hydroxymethyl)-N-(3,4,5-trifluorophenyl)-3,4-dihydro-2H-benzo[b][1,4,5]oxathiazepine-8-carboxamide 1,1-dioxide] was tested, and the inhibition at 1 µM was < 50%. In the case of `O=C(Nc1cc(F)c(F)c(F)c1)c1ccc2c(c1)S(=O)(=O)NC1(COC1)CO2` [Example E140, N-(3,4,5-trifluorophenyl)-2H,4H-spiro[benzo[b][1,4,5]oxathiazepine-3,3'-oxetane]-8-carboxamide 1,1-dioxide], the inhibition at 1 µM is reported as < 50%.

Same assay, conditions: compound at 1 µM, 96 hours, relative to non-treated reference
`CN1CCC(N2C(=O)Nc3ccc(C(=O)Nc4cc(F)c(F)c(F)c4)cc3S2(=O)=O)CC1` [Example E133, 2-(1-methylpiperidin-4-yl)-3-oxo-N-(3,4,5-trifluorophenyl)-3,4-dihydro-2H-benzo[e][1,2,4]thiadiazine-7-carboxamide 1,1-dioxide] was tested, and the “Anti HBV Activity (conc µM)” value was “A (1) (HBV inhibition greater than 50% at the concentration indicated in the table)”.

— patent EP3597653A1, “CYCLIC INHIBITORS OF HEPATITIS B VIRUS” (IRBM S.P.A., priority 2018, dated 2020)
